This passage reports Kd results from publication PMC9614474 (Plant Physiology, 2022).

This experiment has as its target T1, ChElp2 (Colletotrichum higginsianum, UniProt H1UVH3).
T1 construct: gene ELP2
The settings on record: 25 °C.

Usually Kd stands for a measure of binding affinity in units of concentration. Low readings indicate higher affinity, high ones lower affinity.

T1 sequence (H1UVH3 19-176): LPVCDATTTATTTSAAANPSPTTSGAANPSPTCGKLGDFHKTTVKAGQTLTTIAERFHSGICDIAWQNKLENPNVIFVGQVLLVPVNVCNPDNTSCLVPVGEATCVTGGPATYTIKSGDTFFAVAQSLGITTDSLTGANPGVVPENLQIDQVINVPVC

Turning to `CC(=O)N[C@H]1[C@H](O[C@H]2[C@H](O)[C@@H](NC(C)=O)[C@H](O[C@H]3[C@H](O)[C@@H](NC(C)=O)C(O)O[C@@H]3CO)O[C@@H]2CO)O[C@H](CO)[C@@H](O[C@@H]2O[C@H](CO)[C@@H](O[C@@H]3O[C@H](CO)[C@@H](O[C@@H]4O[C@H](CO)[C@@H](O)[C@H](O)[C@H]4NC(C)=O)[C@H](O)[C@H]3NC(C)=O)[C@H](O)[C@H]2NC(C)=O)[C@@H]1O` (stereo partly shown) [Chi6, hexaacetylchitohexaose], the Kd was 5.03 ± 0.241 µM.
